According to ChEMBL document CHEMBL1932979, “Conformationally restricted analog and biotin-labeled probe based on beauveriolide III” (Bioorg Med Chem Lett, 2012):
Calls of active or inactive are those of the source. The calls are words filed in the database; no cut-off is given here.

What was measured:
[1] = target: T1, Sterol O-acyltransferase 1 (Homo sapiens) (UniProt P35610); experiment: Inhibition of ACAT1- mediated cholesteryl ester synthesis in macrophages up to 10 uM
T1 sequence (whole entry): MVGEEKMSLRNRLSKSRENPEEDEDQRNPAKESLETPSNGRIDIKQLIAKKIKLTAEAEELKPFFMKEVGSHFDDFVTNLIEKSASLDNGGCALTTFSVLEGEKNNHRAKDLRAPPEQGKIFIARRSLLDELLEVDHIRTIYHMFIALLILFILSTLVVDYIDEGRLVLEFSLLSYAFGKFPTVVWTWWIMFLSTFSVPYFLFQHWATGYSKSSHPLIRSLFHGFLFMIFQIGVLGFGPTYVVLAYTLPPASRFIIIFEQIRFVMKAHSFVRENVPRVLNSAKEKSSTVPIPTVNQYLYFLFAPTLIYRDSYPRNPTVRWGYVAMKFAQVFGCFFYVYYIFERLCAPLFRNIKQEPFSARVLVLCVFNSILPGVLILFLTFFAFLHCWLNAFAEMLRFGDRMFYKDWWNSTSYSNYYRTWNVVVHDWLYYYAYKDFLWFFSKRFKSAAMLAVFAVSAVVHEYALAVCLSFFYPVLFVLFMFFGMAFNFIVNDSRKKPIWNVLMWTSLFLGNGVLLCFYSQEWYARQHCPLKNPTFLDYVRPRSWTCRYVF

[2] = target: T2, Sterol O-acyltransferase 1 (Homo sapiens, UniProt P35610); experiment: Inhibition of ACAT1- mediated cholesteryl ester synthesis in macrophages
T2 sequence (P35610 whole entry): T1 sequence (whole entry)

| inhibition [1] | IC50 [2] | SMILES |
| --- | --- | --- |
| inactive | 0.8 µM | CCCC[C@H](C)[C@@H]1CC(=O)N[C@@H](C(c2ccccc2)c2ccccc2)C(=O)N[C@H](Cn2cc(CNC(=O)CCCCNC(=O)CCCC[C@@H]3SC[C@@H]4NC(=O)N[C@@H]43)nn2)C(=O)N[C@H](C2CCCCC2)C(=O)O1 |
| – | 0.28 µM | CCCC[C@H](C)[C@@H]1CC(=O)N[C@@H](C(c2ccccc2)c2ccccc2)C2=N[C@H](CO2)C(=O)N[C@H](C2CCCCC2)C(=O)O1 |
